Experimental data from patent US10799461B2 (priority 2004, dated 2020).

Legend:
[1] = cited from earlier work
[2] = system: MDA-MB-468 human breast adenocarcinoma cells; experiment: Colorimetric cytotoxicity (MTS) assay, minicell-mediated drug delivery; type: cell-based; settings: MDA-MB-468 cells, within 6 days after treatment
Method: A colorimetric cytotoxicity assay (Promega; CellTiter 96 Aqueous One™) was used. […] MDA-MB 468 cells were seeded at 5×10^6 cells in T75 flasks and incubated for 48 hrs to obtain ˜1×10^7 cells/flask. The media was changed and cells were treated with 10^9 non-targetedminicellsDOX or ^EGFRMinicellsDOX. Free Doxorubicin (50 ng/ml) was also included as a positive control. The cells were incubated for 24 hrs, washed thoroughly with 3 changes of PBS and trypsinized. Viable cells were counted in a haemocytometer using the trypan blue exclusion method. 1×10^4 cells/ml per well were aliqouted into 24-well plates (6 wells per treatment) and incubated for 3, 4, 5, and 6 days with media changes everyday. MTS assay was performed at each time point according to the manufacturers instructions. Briefly, 100 μL of MTS reagent was added to each well and color development was monitored over 2.5 hrs to 4 hrs. 100 μL from each well was transferred to a 96-well plate and the absorbance was read at 490 nm.

[3] = Reaction at the tail vein injection site in xenograft mice (Example 7); type: in vivo, athymic nude mice
Method: The experiment was designed as follows. Group 1 (control) received no treatment. Group 2 (control) received free Doxorubicin (5 μg/gm of mouse body weight) intratumorally. This control was included to determine the effect of free Doxorubicin on tumor cells and to assess toxic side-effects. Group 3 (control) was the same as group 2, except that the Doxorubicin was administered intravenously. Group 4 (control) received the anti-O antigen/anti-EGFR BsAb and free Doxorubicin intravenously to show the effect of BsAb in the absence of minicells. […] Groups 7 and 8 received EGFR-targeted ^EGFRMinicellsDOX intravenously and intratumorally, respectively, to determine if receptor-targeted, drug-packaged minicells could effect tumor stabilization. […] Minicells were administered at a dose of 10^8 and all treatments were given on days 17, 24, 27 and 56 post-xenograft establishment. All measurements were performed by an investigator who was blinded to the treatments administered. Statistical analysis was performed by analysis of variance (ANOVA) and P<0.05 was considered to be statistically significant.

[4] = system: human breast cancer xenografts; experiment: Human breast cancer xenograft in nude mice, Paclitaxel minicells (Example 8); type: in vivo; settings: 1×10^8 minicells or 400 μg free Paclitaxel, intravenously or intratumorally, days 15, 21, 26, 29 and 33
Method: Human breast adenocarcinoma cells (MDA-MB-468, ATCC; human mammary epithelial cells; non-phagocytic) were grown in tissue culture to full confluency in T-75 flasks in RPMI 1640 medium supplemented with 5% Bovine Calf Serum (GIBCO-BRL Life Technologies, Invitrogen Corporation, Carlsbad, Calif., USA) and glutamine (Invitrogen) in a humidified atmosphere of 95% air and 5% CO2 at 37° C. 1×10^6 cells in 50 uL serum-free media together with 50 uL growth factor reduced matrigel (BD Biosciences, Franklin Lakes, N.J., USA) were injected subcutaneously between the shoulder blades of each mouse using a 23-gauge needle. The tumors were measured twice a week using an electronic digital caliper (Mitutoyo, Japan, precision to 0.001) and mean tumor volume was calculated using the formula, length (mm)×width^2 (mm)×0.5=volume (mm^3). 16 days post-implantation, the tumors reached volumes between 50 mm^3 and 80 mm^3, and mice were randomized to seven different groups of 11 per group.
The experiment shown in example 7 was repeated using ^EGFRminicellsPaclitaxel as the experimental treatment. […]

## CC[C@]1(O)C[C@@H]2CN(CCc3c([nH]c4ccccc34)[C@@](C(=O)OC)(c3cc4c(cc3OC)N(C)[C@H]3[C@@](O)(C(=O)OC)[C@H](OC(C)=O)[C@]5(CC)C=CCN6CC[C@]43[C@@H]65)C2)C1 [Vinblastine]
[1]
  solubility in water: low solubility in water

## COc1cccc2c1C(=O)c1c(O)c3c(c(O)c1C2=O)C[C@@](O)(C(=O)CO)C[C@@H]3O[C@H]1C[C@H](N)[C@H](O)[C@H](C)O1 [free Doxorubicin, Doxorubicin]
[2]
  cell viability: about 30%
[3]
  reaction at the site of injection: severe reaction at the site of the injection

## CC(=O)O[C@H]1C(=O)[C@@]2(C)[C@H]([C@H](OC(=O)c3ccccc3)[C@]3(O)C[C@H](OC(=O)[C@H](O)[C@@H](NC(=O)c4ccccc4)c4ccccc4)C(C)=C1C3(C)C)[C@]1(OC(C)=O)CO[C@@H]1C[C@@H]2O [free paclitaxel, Paclitaxel]
[4]
  tumor stabilization/regression: negligible effect on tumor growth
